Results from patent US8895561B2, “Compounds and methods for treating candidiasis and aspergillus infections” (Cellceutix Corporation, priority 2012, dated 2014).
Values after ≈ are worked out from the molar mass of the structure shown. Read-outs that look alike come from different tables or passages of the source.

Experiments:
[1] = tested on: C. albicans GDH2346; experiment: Candida IC50, vegetative cells, by OD600 and fluorescence; assay type: cell-based; details: Candida albicans, GDH2346; vegetative cells; read-out: CA (Candida IC50)
Protocol: (§1) Candida IC50s were determined by OD600 and fluorescence from vegetative cells and by MTS viability assay in the hyphal state. MICs were determined using a broth microdilution assay under standard CLSI conditions Bacteria strains: E. coli 25922 (EC), S. aureus 27660 (SA), E. faecalis 29212 (EF), P. aeruginosa 10145 (PA), and K. pneumoniae 13883 (KP). Cytotoxicity (EC50) was determined against mouse 3T3 fibroblasts, human transformed liver HepG2 cells, and human oral keratinocyte cell line, OKF6/TERT using an MTS viability assay. Candida IC50s<10 μg/mL, MICs<5 μg/mL and cytotoxicity EC50s>100 μM are indicated in green. MICs>5 μg/mL and cytotoxicity EC50s<100 μM are indicated in red. Candida IC50s (CA) were determined by OD600 and fluorescence from vegetative cells. MICs were determined using a broth microdilution assay under standard CLSI conditions Bacteria strains: E. coli 25922 (EC), S. aureus 27660 (SA), E. faecalis 29212 (EF), P. aeruginosa 10145 (PA), and K. pneumoniae 13883 (KP). Cytotoxicity (EC50) was determined against mouse 3T3 fibroblasts and human transformed liver HepG2 cells using an MTS viability assay. For determination of anti-Candida IC50s, the method was modified by using RPMI/MOPS buffer pH 6.3 and by addition of FDGlu, a substrate for the yeast enzyme exoglucanase which is secreted during cell growth. This provides a fluorescent readout for cell growth which was used in addition to the traditional optical density measure of growth. OD600 and fluorescence were determined at 24 and 48 hours and the average of all 4 reads was used for the final IC50 determination.

[2] = tested on: S. aureus 27660; experiment: Bacterial MIC, broth microdilution, CLSI; assay type: cell-based; details: Staphylococcus aureus, 27660; read-out: SA (MIC)
Protocol: as §1, with “assay.” for “assay. For determination of anti-Candida IC50s, the method was modified by using RPMI/MOPS buffer pH 6.3 and by addition of FDGlu, a substrate for the yeast enzyme exoglucanase which is secreted during cell growth. This provides a fluorescent readout for cell growth which was used in addition to the traditional optical density measure of growth. OD600 and fluorescence were determined at 24 and 48 hours and the average of all 4 reads was used for the final IC50 determination.”

[3] = tested on: P. aeruginosa 10145; experiment: Bacterial MIC, broth microdilution, CLSI; assay type: cell-based; details: Pseudomonas aeruginosa, 10145; read-out: PA (MIC)
Protocol: as §1, with “assay.” for “assay. For determination of anti-Candida IC50s, the method was modified by using RPMI/MOPS buffer pH 6.3 and by addition of FDGlu, a substrate for the yeast enzyme exoglucanase which is secreted during cell growth. This provides a fluorescent readout for cell growth which was used in addition to the traditional optical density measure of growth. OD600 and fluorescence were determined at 24 and 48 hours and the average of all 4 reads was used for the final IC50 determination.”

[4] = tested on: E. coli 25922; experiment: Bacterial MIC, broth microdilution, CLSI; assay type: cell-based; details: Escherichia coli, 25922; read-out: EC (MIC)
Protocol: as §1, with “assay.” for “assay. For determination of anti-Candida IC50s, the method was modified by using RPMI/MOPS buffer pH 6.3 and by addition of FDGlu, a substrate for the yeast enzyme exoglucanase which is secreted during cell growth. This provides a fluorescent readout for cell growth which was used in addition to the traditional optical density measure of growth. OD600 and fluorescence were determined at 24 and 48 hours and the average of all 4 reads was used for the final IC50 determination.”

[5] = tested on: E. faecalis 29212; experiment: Bacterial MIC, broth microdilution, CLSI; assay type: cell-based; details: Enterococcus faecalis, 29212; read-out: EF (MIC)
Protocol: as §1, with “assay.” for “assay. For determination of anti-Candida IC50s, the method was modified by using RPMI/MOPS buffer pH 6.3 and by addition of FDGlu, a substrate for the yeast enzyme exoglucanase which is secreted during cell growth. This provides a fluorescent readout for cell growth which was used in addition to the traditional optical density measure of growth. OD600 and fluorescence were determined at 24 and 48 hours and the average of all 4 reads was used for the final IC50 determination.”

[6] = Cytotoxicity, MTS viability assay; assay type: cell-based, human
Protocol: Candida IC50s were determined by OD600 and fluorescence from vegetative cells and by MTS viability assay in the hyphal state. MICs were determined using a broth microdilution assay under standard CLSI conditions Bacteria strains: E. coli 25922 (EC), S. aureus 27660 (SA), E. faecalis 29212 (EF), P. aeruginosa 10145 (PA), and K. pneumoniae 13883 (KP). Cytotoxicity (EC50) was determined against mouse 3T3 fibroblasts, human transformed liver HepG2 cells, and human oral keratinocyte cell line, OKF6/TERT using an MTS viability assay. Candida IC50s<10 μg/mL, MICs<5 μg/mL and cytotoxicity EC50s>100 μM are indicated in green. MICs>5 μg/mL and cytotoxicity EC50s<100 μM are indicated in red.
Candida IC50s (CA) were determined by OD600 and fluorescence from vegetative cells. MICs were determined using a broth microdilution assay under standard CLSI conditions Bacteria strains: E. coli 25922 (EC), S. aureus 27660 (SA), E. faecalis 29212 (EF), P. aeruginosa 10145 (PA), and K. pneumoniae 13883 (KP). Cytotoxicity (EC50) was determined against mouse 3T3 fibroblasts and human transformed liver HepG2 cells using an MTS viability assay.
CLSI conditions Bacteria strains: clinical isolates; yeast strains: C. dubliniensis (NCPF3949), C. glabrata (ATCC 90030), C. krusei (ATCC 6258), C. parapsilosis (ATCC 22019), and C. tropicalis (ATCC 750). Cytotoxicity (EC50) was determined against mouse 3T3 fibroblasts, human transformed liver HepG2 cells, and human oral keratinocyte cell line, OKF6/TERT using an MTS viability assay.

[7] = human, HepG2 cells (transformed liver), read-out: HepG2 (cytotoxicity EC50)
[8] = mouse, 3T3 fibroblasts, read-out: 3T3 (cytotoxicity EC50)

SMILES	IC50 [1] [µg/mL]	MIC [2] [µg/mL]	MIC [3] [µg/mL]	MIC [4] [µg/mL]	MIC [5] [µg/mL]	EC50 [6, 7] [µM]	EC50 [6, 8] [µM]
NCCCn1c2cc(-c3cc(CCN)cc(CCN)c3)ccc2c2ccc(-c3cc(CCN)cc(CCN)c3)cc21 [Compound 161]	11.8 (≈ 21.5 µM)	6.25 (≈ 11.4 µM)	50 (≈ 91.1 µM)	1.56 (≈ 2.84 µM)	> 50	466	356
N=C(N)NCCCn1c2cc(-c3cc(CCNC(=N)N)cc(CCNC(=N)N)c3)ccc2c2ccc(-c3cc(CCNC(=N)N)cc(CCNC(=N)N)c3)cc21 [Compound 162]	3.12 (≈ 4.11 µM)	0.39 (≈ 0.514 µM)	3.13 (≈ 4.12 µM)	1.56 (≈ 2.06 µM)	12.5 (≈ 16.5 µM)	273	49
N=C(N)NCCCOc1cc(OCCCNC(=N)N)cc(-c2ccc3c(c2)c2cc(-c4cc(OCCCNC(=N)N)cc(OCCCNC(=N)N)c4)ccc2n3CCCNC(=N)N)c1 [Compound 163]	1.79 (≈ 2.04 µM)	3.13 (≈ 3.56 µM)	50 (≈ 56.9 µM)	3.13 (≈ 3.56 µM)	3.13 (≈ 3.56 µM)	113	31
NCCCc1cccc(-c2ccc3c4ccc(-c5cccc(CCCN)c5)cc4n(CCN)c3c2)c1 [Compound 140]	3.58 (≈ 7.51 µM)	0.195 (≈ 0.409 µM)	3.13 (≈ 6.57 µM)	0.78 (≈ 1.64 µM)	3.13 (≈ 6.57 µM)	99	159
CCn1c2ccc(-c3cc(C(=O)NCCN)cc(C(=O)NCCN)c3)cc2c2cc(-c3cc(C(=O)NCCN)cc(C(=O)NCCN)c3)ccc21 [Compound 148]	8.74 (≈ 12.6 µM)	3.13 (≈ 4.52 µM)	> 50	25 (≈ 36.1 µM)	> 50	312	450
CCn1c2ccc(-c3cc(OCCCN)cc(OCCCN)c3)cc2c2cc(-c3cc(OCCCN)cc(OCCCN)c3)ccc21 [Compound 147]	–	0.098 (≈ 0.153 µM)	6.25 (≈ 9.77 µM)	1.56 (≈ 2.44 µM)	0.39 (≈ 0.61 µM)	–	–
NCc1cccc(-c2ccc3[nH]c4ccc(-c5cccc(CN)c5)cc4c3c2)c1 [Compound 117]	3.1 (≈ 8.21 µM)	–	–	–	–	–	–
NCCCn1c2cc(-c3cccc(OCCN)c3)ccc2c2ccc(-c3cccc(OCCN)c3)cc21 [Compound 151]	3.85 (≈ 7.78 µM)	0.195 (≈ 0.394 µM)	6.25 (≈ 12.6 µM)	3.13 (≈ 6.33 µM)	6.25 (≈ 12.6 µM)	78	56
NCCCOc1cc(OCCCN)cc(-c2ccc3c4ccc(-c5cc(OCCCN)cc(OCCCN)c5)cc4n(CCCN)c3c2)c1 [Compound 143]	6.48 (≈ 9.69 µM)	0.39 (≈ 0.583 µM)	50 (≈ 74.8 µM)	3.13 (≈ 4.68 µM)	1.56 (≈ 2.33 µM)	140	222
NCCCn1c2cc(Br)ccc2c2ccc(Br)cc21 [Compound 141]	–	12.5 (≈ 32.7 µM)	100 (≈ 262 µM)	12.5 (≈ 32.7 µM)	–	62	107
NCCCOc1cccc(-c2ccc3c4ccc(-c5cccc(OCCCN)c5)cc4n(CCCN)c3c2)c1 [Compound 150]	3.34 (≈ 6.39 µM)	0.049 (≈ 0.0937 µM)	3.13 (≈ 5.99 µM)	0.78 (≈ 1.49 µM)	1.56 (≈ 2.98 µM)	58	54
NCCCn1c2cc(-c3cccc(CCN)c3)ccc2c2ccc(-c3cccc(CCN)c3)cc21 [Compound 144]	3.95 (≈ 8.54 µM)	0.098 (≈ 0.212 µM)	3.13 (≈ 6.77 µM)	3.13 (≈ 6.77 µM)	0.195 (≈ 0.421 µM)	188	80
NCCN(CCN)c1cccc(-c2ccc3[nH]c4ccc(-c5cccc(N(CCN)CCN)c5)cc4c3c2)c1 [Compound 156]	1.94 (≈ 3.72 µM)	1.56 (≈ 2.99 µM)	12.5 (≈ 24 µM)	1.56 (≈ 2.99 µM)	> 50	> 1000	487

Continued, in another order:

IC50 [1] [µg/mL]	MIC [2] [µg/mL]	MIC [3] [µg/mL]	MIC [4] [µg/mL]	MIC [5] [µg/mL]	SMILES	EC50 [6, 7] [µM]	EC50 [6, 8] [µM]
17.5 (≈ 31.8 µM)	1.56 (≈ 2.84 µM)	25 (≈ 45.5 µM)	1.56 (≈ 2.84 µM)	> 50	NCCN(CCN)Cc1cccc(-c2ccc3[nH]c4ccc(-c5cccc(CN(CCN)CCN)c5)cc4c3c2)c1 [Compound 158]	615	179
3.77 (≈ 7.21 µM)	0.39 (≈ 0.746 µM)	3.13 (≈ 5.99 µM)	1.56 (≈ 2.98 µM)	1.56 (≈ 2.98 µM)	NCCCOc1ccc(-c2ccc3c4ccc(-c5ccc(OCCCN)cc5)cc4n(CCCN)c3c2)cc1 [Compound 152]	12	34
1.65 (≈ 2.56 µM)	1.56 (≈ 2.42 µM)	25 (≈ 38.8 µM)	3.13 (≈ 4.85 µM)	6.25 (≈ 9.69 µM)	N=C(N)NCCCCCc1cccc(-c2ccc3c4ccc(-c5cccc(CCCNC(=N)N)c5)cc4n(CCCNC(=N)N)c3c2)c1 [Compound 142]	100	131
> 100	0.049 (≈ 0.12 µM)	> 100	3.13 (≈ 7.66 µM)	1.56 (≈ 3.82 µM)	NCCCn1c2cc(-c3cccc(O)c3)ccc2c2ccc(-c3cccc(O)c3)cc21 [Compound 149]	20	29
23.9 (≈ 53.6 µM)	25 (≈ 56 µM)	50 (≈ 112 µM)	> 50	3.13 (≈ 7.01 µM)	NCCCOc1cc(OCCCN)cc(-c2ccc3c(c2)c2ccccc2n3CCCN)c1 [Compound 145]	790	> 1000
2.63 (≈ 4.78 µM)	0.39 (≈ 0.709 µM)	12.5 (≈ 22.7 µM)	12.5 (≈ 22.7 µM)	> 50	CCn1c2ccc(-c3cccc(N(CCN)CCN)c3)cc2c2cc(-c3cccc(N(CCN)CCN)c3)ccc21 [Compound 155]	–	–
–	1.56 (≈ 3.84 µM)	100 (≈ 246 µM)	12.5 (≈ 30.7 µM)	12.5 (≈ 30.7 µM)	NCCCn1c2cc(-c3cccc(N)c3)ccc2c2ccc(-c3cccc(N)c3)cc21 [Compound 153]	65	46
44.6 (≈ 84.9 µM)	0.39 (≈ 0.742 µM)	12.5 (≈ 23.8 µM)	50 (≈ 95.1 µM)	0.39 (≈ 0.742 µM)	NCCCOc1cc(OCCCN)cc(-c2ccc3c4ccc(Br)cc4n(CCCN)c3c2)c1 [Compound 146]	341	307
1.48 (≈ 1.95 µM)	1.95 (≈ 2.57 µM)	6.25 (≈ 8.23 µM)	1.56 (≈ 2.06 µM)	3.13 (≈ 4.12 µM)	N=C(N)NCCCn1c2cc(-c3ccc(CCNC(=N)N)c(CCNC(=N)N)c3)ccc2c2ccc(-c3ccc(CCNC(=N)N)c(CCNC(=N)N)c3)cc21 [Compound 160]	28	28
> 100	–	–	–	–	NCCCn1c2ccccc2c2ccccc21 [Compound 139]	–	–
